In ChEMBL document CHEMBL1201862, “PubChem BioAssay data set” (2004) one finds EC50, AC50 and IC50 data, which are given here for five molecules.

Activity calls are given as the source filed them.

Assay [1] concerns the target T1, Apoptotic protease-activating factor 1 (Homo sapiens, UniProt O14727).
T1 sequence (O14727 whole entry): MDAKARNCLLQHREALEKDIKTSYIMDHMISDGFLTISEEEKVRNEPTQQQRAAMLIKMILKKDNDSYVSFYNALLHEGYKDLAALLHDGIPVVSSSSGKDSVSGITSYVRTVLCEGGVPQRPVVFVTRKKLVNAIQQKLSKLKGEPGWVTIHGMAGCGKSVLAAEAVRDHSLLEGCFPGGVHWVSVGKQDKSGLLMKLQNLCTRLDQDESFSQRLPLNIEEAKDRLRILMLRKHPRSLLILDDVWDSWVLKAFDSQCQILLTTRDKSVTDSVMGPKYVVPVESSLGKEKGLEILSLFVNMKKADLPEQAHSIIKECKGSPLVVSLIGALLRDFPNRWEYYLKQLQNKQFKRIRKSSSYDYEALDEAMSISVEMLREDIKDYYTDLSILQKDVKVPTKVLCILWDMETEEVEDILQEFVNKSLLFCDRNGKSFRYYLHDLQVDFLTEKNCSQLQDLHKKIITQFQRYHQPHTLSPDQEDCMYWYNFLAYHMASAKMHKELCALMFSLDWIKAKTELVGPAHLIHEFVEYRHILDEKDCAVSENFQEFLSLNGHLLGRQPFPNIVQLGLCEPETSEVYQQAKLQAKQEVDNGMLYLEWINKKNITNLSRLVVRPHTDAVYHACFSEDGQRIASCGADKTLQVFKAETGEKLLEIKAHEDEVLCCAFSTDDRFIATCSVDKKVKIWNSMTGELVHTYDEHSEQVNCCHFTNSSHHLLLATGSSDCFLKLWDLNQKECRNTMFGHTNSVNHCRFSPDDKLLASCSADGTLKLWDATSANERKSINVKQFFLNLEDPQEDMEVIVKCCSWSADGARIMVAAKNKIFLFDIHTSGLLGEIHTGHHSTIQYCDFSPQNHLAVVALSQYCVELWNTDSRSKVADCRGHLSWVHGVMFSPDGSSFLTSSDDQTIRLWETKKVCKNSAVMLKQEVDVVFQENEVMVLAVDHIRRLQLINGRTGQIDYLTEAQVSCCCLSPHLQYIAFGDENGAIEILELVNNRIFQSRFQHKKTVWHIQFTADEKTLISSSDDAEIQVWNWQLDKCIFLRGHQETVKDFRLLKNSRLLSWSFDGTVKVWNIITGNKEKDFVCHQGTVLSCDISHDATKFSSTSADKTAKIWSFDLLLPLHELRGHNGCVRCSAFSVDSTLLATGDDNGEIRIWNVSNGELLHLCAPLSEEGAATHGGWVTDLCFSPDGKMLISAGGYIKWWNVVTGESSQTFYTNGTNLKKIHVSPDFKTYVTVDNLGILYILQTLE
In words: activation of Apaf-1 mediated apoptosis – fluorescent, uHTS hits, dose response (AID 588554). The assay is classed as functional.

The subject of assay [2] is H4. The assay can be described thus: Luminescence Cell-Based Dose Response HTS to Identify Activators of 5'UTR Stem-Loop Driven Prion Protein mRNA Translation in H4 Neuroglioblastoma Cells. [Related pubchem assays: 1829 (Project Summary), 1814 (Primary HTS)]. The following applies: Homo sapiens. The assay is classed as functional.
Assay [3] deals with Keap1/Nrf2 (Homo sapiens, UniProt Q14145). In words: disruptors of Keap1 binding to Nrf2 peptide – biochemical, fluorescence polarization, cherry-picked samples, dose response (AID 588683). Background: In fluorescence polarisation assays a small probe gives low polarisation when free and higher when bound to something large.
The nature of assay [4]: Luminescence Cell-Based Dose Response HTS to Identify Activators of Luciferase Translation or Activity in H4 […] Cells. [Related pubchem assays: 1829 (Project Summary), 1814 (Primary HTS)]. The assay is classed as functional.
For assay [5], the target named is Large T antigen (Simian virus 40, UniProt P03070). The assay is classed as functional, Betapolyomavirus macacae.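 Further: Confirmatory-stage PubChem screen for compounds that inhibit SV40 T antigen.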
Assay [6] addresses Phosphomannomutase 2 (Homo sapiens, UniProt O15305). In words: Counter screen SAR assay for PMM2 inhibitors via a fluorescence intensity assay. [Related pubchem assays (depositor defined):AID1545, AID1574]. (In general: The purpose of a counterscreen is to sort out artefacts and off-target activity.)
For assay [7], the target named is T2, Mannose-6-phosphate isomerase (Homo sapiens, UniProt P34949).
T2 sequence (P34949 whole entry): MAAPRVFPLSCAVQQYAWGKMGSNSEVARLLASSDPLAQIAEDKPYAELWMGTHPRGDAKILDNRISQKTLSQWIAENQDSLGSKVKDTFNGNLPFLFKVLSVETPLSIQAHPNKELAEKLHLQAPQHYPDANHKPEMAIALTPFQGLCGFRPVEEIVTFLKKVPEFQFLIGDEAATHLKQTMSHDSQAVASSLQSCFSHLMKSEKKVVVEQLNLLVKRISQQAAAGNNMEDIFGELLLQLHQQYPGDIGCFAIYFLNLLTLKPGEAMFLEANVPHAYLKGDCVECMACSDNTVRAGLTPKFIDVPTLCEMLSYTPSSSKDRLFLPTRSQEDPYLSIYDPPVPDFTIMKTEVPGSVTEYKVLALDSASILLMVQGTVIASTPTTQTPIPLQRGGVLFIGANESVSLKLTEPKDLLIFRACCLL
The assay can be described thus: phosphomannose isomerase inhibition – biochemical, fluorescence intensity, confirmation (AID 1535).

For assay [8], the target named is Potassium voltage-gated channel subfamily KQT member 2 (Rattus norvegicus, UniProt O88943). The assay can be described thus: rat KCNQ2 current potentiators – automated patch clamp, KCNQ2-CHO cells, SAR follow-up (AID 493113). The assay is classed as functional.
Assay [9] concerns the target T3, Histone-lysine N-methyltransferase NSD2 (Homo sapiens, UniProt O96028).
T3 sequence (O96028 whole entry): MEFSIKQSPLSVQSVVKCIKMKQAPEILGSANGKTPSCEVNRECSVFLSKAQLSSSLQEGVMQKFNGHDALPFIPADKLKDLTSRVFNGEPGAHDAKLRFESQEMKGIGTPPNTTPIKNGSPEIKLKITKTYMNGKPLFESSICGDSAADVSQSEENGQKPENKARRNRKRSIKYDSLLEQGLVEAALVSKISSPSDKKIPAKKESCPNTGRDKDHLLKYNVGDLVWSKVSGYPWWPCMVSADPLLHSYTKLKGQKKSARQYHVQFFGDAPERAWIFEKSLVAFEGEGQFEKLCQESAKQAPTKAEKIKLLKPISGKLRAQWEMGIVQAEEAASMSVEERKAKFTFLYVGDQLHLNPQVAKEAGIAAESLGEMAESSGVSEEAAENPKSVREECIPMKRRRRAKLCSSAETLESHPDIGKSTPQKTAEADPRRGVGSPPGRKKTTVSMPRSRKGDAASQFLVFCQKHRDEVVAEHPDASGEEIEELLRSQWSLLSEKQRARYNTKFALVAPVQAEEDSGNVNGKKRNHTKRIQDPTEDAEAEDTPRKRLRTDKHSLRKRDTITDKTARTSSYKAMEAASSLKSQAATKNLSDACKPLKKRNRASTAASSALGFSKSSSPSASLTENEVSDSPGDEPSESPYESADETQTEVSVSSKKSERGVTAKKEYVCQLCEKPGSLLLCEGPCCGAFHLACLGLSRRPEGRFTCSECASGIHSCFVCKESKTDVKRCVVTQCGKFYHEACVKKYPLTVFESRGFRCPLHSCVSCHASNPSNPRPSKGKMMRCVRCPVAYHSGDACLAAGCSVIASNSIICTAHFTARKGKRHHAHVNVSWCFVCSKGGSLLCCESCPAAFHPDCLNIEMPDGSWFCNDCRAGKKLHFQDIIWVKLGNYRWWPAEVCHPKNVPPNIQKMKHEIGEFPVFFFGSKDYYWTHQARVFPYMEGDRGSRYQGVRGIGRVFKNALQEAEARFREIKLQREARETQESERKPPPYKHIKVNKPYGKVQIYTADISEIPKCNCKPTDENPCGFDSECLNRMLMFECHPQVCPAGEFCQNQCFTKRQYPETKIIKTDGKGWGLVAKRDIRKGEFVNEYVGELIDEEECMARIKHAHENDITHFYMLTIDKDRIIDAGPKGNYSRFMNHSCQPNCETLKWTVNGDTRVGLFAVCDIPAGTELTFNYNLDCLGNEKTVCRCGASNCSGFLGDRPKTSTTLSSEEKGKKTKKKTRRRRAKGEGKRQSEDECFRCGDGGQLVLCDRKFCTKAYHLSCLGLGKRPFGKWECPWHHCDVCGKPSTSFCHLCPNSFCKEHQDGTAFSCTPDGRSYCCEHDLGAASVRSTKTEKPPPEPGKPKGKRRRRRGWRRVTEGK
The assay is classed as biochemical.

In assay [10] the target is T4, Replicative DNA helicase DnaB (Mycobacterium tuberculosis, UniProt P9WMR3).
T4 sequence (P9WMR3 whole entry): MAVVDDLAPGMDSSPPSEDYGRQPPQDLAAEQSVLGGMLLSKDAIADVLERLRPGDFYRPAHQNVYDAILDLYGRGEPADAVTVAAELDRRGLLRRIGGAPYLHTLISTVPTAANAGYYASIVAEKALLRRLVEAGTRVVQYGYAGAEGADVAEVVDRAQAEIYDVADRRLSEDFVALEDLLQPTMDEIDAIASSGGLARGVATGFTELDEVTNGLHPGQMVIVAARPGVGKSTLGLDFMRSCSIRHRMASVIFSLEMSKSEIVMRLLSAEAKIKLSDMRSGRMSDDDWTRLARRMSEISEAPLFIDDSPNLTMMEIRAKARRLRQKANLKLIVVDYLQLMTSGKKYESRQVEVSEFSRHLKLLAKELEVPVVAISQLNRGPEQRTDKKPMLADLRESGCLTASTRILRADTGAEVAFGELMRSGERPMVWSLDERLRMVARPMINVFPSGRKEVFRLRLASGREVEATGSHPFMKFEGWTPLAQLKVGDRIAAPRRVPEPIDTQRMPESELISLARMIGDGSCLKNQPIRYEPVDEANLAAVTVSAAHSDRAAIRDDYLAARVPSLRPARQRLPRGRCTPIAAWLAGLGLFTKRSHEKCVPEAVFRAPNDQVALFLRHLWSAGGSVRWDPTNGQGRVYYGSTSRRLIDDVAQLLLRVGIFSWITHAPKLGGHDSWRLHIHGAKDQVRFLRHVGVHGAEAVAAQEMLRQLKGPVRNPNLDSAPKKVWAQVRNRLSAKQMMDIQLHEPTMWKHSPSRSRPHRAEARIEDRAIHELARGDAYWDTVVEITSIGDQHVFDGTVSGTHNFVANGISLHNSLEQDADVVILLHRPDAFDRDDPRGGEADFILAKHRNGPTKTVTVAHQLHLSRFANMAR
The assay can be described thus: DnaB intein splicing inhibitors, dose response, biochemical, cell-free fluorescence (AID 449749). The assay is classed as functional.

In assay [11] the target is T2, Mannose-6-phosphate isomerase. In words: MPI inhibition at elevated mannose 6-phosphate – biochemical, fluorescence intensity, high mannose 6-phosphate, primary screen (AID 1220).
Assay [12] addresses Lysine-specific demethylase 4C (Homo sapiens, UniProt Q9H3R0). In words: inhibition of JMJD2C H3K9me3 demethylation – biochemical, DELFIA europium, cherry-picked samples, dose response (AID 488835). The assay is classed as functional.
For assay [13], the target named is T5, Protein RecA (Mycobacterium tuberculosis, UniProt P9WHJ3).
T5 sequence (P9WHJ3 whole entry): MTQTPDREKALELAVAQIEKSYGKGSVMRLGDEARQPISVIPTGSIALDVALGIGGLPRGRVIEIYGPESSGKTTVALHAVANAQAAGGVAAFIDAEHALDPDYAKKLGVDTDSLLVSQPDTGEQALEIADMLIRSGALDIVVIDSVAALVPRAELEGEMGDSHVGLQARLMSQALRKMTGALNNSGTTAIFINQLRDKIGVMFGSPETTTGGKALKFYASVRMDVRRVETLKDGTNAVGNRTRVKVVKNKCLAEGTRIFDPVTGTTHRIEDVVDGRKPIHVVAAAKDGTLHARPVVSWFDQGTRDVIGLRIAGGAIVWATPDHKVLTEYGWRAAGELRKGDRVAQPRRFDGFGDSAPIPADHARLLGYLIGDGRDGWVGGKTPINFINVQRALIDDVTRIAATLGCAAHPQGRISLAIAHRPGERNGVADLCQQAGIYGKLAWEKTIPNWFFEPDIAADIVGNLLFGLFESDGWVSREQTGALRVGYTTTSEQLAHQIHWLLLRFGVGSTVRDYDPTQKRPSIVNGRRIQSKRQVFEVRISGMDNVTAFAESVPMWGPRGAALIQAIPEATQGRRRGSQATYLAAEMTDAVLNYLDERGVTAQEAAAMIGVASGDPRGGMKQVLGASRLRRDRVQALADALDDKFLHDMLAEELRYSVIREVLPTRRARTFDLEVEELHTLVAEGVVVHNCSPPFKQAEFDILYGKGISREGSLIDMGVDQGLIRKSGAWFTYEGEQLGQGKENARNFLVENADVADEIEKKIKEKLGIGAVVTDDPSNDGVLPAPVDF
In words: Fluorescence Cell-Free Homogeneous Dose Retest to Identify Inhibitors of RecA-Intein Splicing Activity. [Related pubchem assays (depositor defined):AID2097, AID2223, AID489010, AID492950]. The assay is classed as functional.

Keap1/Nrf2, sequence (Q16236 whole entry): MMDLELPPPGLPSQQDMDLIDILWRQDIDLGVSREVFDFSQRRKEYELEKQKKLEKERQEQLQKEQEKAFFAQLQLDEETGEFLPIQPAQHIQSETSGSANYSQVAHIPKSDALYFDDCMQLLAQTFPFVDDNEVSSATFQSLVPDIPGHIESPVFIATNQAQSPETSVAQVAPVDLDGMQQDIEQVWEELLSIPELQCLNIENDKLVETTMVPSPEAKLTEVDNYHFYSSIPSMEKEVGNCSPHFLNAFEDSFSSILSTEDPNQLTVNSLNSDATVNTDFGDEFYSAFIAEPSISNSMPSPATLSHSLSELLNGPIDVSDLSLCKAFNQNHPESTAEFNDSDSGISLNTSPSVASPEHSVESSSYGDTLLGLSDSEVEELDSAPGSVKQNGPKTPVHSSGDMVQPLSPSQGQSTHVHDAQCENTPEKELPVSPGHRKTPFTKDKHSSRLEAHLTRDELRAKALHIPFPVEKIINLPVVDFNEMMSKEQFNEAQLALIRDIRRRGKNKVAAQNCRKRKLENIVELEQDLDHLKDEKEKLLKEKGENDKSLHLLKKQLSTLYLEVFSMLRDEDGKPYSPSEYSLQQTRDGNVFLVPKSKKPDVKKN
Keap1/Nrf2, sequence (Q14145 whole entry): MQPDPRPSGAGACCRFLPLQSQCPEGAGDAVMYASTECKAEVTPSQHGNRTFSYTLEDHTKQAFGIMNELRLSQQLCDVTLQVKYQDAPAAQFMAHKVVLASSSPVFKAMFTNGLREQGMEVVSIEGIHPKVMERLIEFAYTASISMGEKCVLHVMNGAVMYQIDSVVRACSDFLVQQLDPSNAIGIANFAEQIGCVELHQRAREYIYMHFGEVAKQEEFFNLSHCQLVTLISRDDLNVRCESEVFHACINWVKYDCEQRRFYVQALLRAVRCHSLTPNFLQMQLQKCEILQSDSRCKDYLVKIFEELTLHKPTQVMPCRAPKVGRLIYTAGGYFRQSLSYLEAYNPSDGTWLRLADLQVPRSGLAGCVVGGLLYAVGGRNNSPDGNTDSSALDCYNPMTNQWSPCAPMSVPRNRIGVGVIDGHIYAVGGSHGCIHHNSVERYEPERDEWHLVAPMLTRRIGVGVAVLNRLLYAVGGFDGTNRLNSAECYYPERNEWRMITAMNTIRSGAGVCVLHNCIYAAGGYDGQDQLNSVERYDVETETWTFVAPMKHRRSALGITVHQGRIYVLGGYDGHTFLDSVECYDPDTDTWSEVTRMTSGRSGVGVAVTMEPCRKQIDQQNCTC
Phosphomannomutase 2, sequence (O15305 whole entry): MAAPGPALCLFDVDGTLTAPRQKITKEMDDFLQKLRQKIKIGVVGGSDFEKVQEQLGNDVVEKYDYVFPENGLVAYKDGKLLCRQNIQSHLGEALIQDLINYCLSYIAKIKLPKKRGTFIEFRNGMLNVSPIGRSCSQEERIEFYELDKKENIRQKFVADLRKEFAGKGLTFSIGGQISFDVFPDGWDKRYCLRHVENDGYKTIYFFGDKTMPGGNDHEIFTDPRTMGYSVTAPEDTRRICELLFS
Large T antigen, sequence (P03070 whole entry): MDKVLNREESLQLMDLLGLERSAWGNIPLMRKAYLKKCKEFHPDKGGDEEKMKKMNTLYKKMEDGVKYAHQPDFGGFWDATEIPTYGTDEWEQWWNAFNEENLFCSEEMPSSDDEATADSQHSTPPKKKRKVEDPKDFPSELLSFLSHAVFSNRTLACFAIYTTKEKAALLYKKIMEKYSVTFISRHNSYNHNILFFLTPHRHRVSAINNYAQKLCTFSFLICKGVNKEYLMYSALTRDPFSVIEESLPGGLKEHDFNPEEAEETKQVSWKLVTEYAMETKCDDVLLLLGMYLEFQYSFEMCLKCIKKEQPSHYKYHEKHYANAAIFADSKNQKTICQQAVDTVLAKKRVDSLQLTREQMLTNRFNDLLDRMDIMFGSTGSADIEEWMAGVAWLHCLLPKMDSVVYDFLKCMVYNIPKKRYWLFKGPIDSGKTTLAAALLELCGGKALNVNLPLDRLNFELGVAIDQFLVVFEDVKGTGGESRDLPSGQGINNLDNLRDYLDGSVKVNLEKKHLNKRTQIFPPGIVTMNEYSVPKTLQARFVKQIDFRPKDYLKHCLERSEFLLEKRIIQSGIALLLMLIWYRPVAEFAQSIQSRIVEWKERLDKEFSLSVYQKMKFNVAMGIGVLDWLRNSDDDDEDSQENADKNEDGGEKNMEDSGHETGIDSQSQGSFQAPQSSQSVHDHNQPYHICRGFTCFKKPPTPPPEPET
Lysine-specific demethylase 4C, sequence (Q9H3R0 whole entry): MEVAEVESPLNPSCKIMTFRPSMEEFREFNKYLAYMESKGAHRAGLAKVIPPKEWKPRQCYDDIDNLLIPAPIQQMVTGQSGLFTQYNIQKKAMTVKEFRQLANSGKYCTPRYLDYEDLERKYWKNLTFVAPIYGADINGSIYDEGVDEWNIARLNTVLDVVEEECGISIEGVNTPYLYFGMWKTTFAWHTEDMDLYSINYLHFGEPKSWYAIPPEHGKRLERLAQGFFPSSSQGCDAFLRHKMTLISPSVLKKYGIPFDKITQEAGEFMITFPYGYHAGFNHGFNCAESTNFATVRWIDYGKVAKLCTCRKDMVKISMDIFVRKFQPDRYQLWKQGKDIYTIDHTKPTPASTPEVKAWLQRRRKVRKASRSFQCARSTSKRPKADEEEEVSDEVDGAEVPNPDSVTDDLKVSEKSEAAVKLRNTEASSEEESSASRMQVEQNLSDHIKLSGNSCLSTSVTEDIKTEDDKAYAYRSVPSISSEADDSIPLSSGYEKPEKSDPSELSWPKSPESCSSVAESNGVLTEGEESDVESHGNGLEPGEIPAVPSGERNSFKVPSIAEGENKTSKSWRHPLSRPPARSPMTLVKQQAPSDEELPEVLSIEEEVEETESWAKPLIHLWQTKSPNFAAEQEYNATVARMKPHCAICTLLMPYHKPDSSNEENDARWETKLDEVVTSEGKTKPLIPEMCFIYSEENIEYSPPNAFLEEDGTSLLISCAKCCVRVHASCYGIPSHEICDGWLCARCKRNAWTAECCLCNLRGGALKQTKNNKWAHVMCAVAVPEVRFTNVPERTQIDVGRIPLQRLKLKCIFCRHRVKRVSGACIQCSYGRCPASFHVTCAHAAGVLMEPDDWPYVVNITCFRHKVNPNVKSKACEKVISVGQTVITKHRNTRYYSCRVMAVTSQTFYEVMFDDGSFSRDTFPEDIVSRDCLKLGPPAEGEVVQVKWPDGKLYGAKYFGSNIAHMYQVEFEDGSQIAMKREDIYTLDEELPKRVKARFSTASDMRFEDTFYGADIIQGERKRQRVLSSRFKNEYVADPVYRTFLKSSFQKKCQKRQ
Potassium voltage-gated channel subfamily KQT member 2, sequence (O88943 whole entry): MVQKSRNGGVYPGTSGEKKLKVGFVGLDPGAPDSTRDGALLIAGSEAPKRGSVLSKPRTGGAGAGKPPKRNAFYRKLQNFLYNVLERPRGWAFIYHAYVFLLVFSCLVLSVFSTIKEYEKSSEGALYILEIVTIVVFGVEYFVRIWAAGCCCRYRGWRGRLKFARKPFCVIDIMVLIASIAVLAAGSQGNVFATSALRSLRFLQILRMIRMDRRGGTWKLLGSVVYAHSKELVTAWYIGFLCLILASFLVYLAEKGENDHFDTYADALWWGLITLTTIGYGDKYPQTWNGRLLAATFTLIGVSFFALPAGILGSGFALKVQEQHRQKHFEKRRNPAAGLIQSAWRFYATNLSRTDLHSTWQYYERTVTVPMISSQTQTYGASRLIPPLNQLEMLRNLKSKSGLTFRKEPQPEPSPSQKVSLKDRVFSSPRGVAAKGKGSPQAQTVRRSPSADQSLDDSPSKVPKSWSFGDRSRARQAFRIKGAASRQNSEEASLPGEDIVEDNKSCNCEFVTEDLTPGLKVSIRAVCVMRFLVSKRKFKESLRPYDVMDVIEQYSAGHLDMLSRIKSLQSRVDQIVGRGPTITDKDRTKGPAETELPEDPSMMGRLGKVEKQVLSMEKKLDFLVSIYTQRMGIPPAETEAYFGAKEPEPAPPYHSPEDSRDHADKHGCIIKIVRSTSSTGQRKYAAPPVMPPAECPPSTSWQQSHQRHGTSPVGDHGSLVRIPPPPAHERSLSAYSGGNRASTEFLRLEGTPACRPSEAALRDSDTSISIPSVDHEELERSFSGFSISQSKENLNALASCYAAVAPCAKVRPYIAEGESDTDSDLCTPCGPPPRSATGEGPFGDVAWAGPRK

One may read the EC50 as the concentration needed to bring the measured effect to its halfway point. As for `O=C1C2(CCCC13COC(c1ccc(O)cc1)OC3)COC(c1ccc(O)cc1)OC2` (stereo not drawn), the half-maximal effective concentration (EC50) in assay [1] is 9.2 µM (active).

In general, AC50 refers to the concentration at which the activity in the assay is half-maximal. Turning to `O=c1c(-c2cc3ccccc3o2)[n+]([O-])c2ccccc2n1OCc1ccccn1`, the EC50 was 65.5 µM (inconclusive) in assay [2] and 4.81 µM (active) in [4]. Also, in assay [3], the AC50 was > 52 µM (inactive).

As usually defined, the IC50 is the concentration needed to halve the response being measured. On to `CCOc1ccc(-c2n[nH]c(=S)[nH]2)cc1`, for which the IC50 in assay [5] is > 100 µM (active); in [6], > 100 µM (inactive); in [7], 39.1 µM (active).

For the molecule `Cc1cc(C)c(NC(=O)CCC2CCCC2)c(C)c1`, the EC50 in assay [8] was 0.49 µM (active).

`Cc1nnc(N/N=C\c2ccc(-c3ccccc3[N+](=O)[O-])o2)n1N`: the values for the concentration at half-maximal activity (AC50) in [9], in assay [10] and in [12] were 10.3 µM (active), 58.9 µM (active) and 7.3 µM (active), respectively. Also, in assay [11], the IC50 is recorded as > 50 µM (not active). In addition, in assay [13], the EC50 was 23.5 µM (active).
